Reference: US20210405025A1, “IDENTIFYING COMPOUNDS FOR TREATING CANCER AND USE THEREOF” (THE UAB RESEARCH FOUNDATION, priority 2018, published 2021)
Where a name gives a salt, the structure may show the parent alone.

Test system: relapsed AML cells
Experiment: Drug sensitivity assay, 1,536-well, 3-day culture with individual approved drugs at 10 μM, viability by alamarBlue
Assay type: cell-based, human
Details: not given
How it was run: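 Three-day exposure of primary AML cells to individual drugs in 1,536-well format, viability read as percent live cells. Cells were thawed, cultured overnight, sorted by FACS for viable blasts and plated at 4,000-4,500 cells/5 μL in cytokine-supplemented IMDM/BIT medium.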

Molecule	#Cases >70% cell death
[O-][n+]1ccccc1[S-].[O-][n+]1ccccc1[S-].[Zn+2] [PYRITHIONE ZINC]	7
C[CH2][Hg][S]c1ccccc1C(=O)[O-].[Na+] [THIMEROSAL]	18

Same assay, conditions: number of relapsed AML cases out of 18 tested with >70% cell death; 10 μM, 3-day culture

Molecule	#Cases >70% cell death
COc1ccc(CN2CCN(C(c3ccc(F)cc3)c3ccc(F)cc3)CC2)c(OC)c1OC [LOMERIZINE]	7
Cc1nc2sccn2c(=O)c1CCN1CCC(=C(c2ccc(F)cc2)c2ccc(F)cc2)CC1 [RITANSERIN]	1
O=C(Nc1ccccc1Br)N[C@@H]1CCN(c2ccc(C(F)(F)F)cn2)C1 [SB-705498]	1
Cn1cncc1[C@@](N)(c1ccc(Cl)cc1)c1ccc2c(c1)c(-c1cccc(Cl)c1)cc(=O)n2C [TIPIFARNIB]	7
Cc1cc(C2CCCCC2)n(O)c(=O)c1 [CICLOPIROX]	14
CCCCC(CC)COC(=O)C(C#N)=C(c1ccccc1)c1ccccc1 (stereo not shown) [OCTOCRYLENE]	1
CC1=C(C)C(=O)C(C(CCCCCC(=O)O)c2ccccc2)=C(C)C1=O (stereo not shown) [SERATRODAST]	1
CC(C)(Sc1cc(C(C)(C)C)c(O)c(C(C)(C)C)c1)Sc1cc(C(C)(C)C)c(O)c(C(C)(C)C)c1 [PROBUCOL]	4
C[C@]12CC[C@@H]3c4ccc(O)cc4CC[C@H]3[C@@H]1CC[C@@H]2OC(=O)CCC1CCCC1 [ESTRADIOL CYPIONATE]	2
OCCN1CCN(CCCN2c3ccccc3Sc3ccc(C(F)(F)F)cc32)CC1 [FLUPHENAZINE]	3
CC(=O)O[C@H]1C(=O)[C@@]2(C)[C@H]([C@H](OC(=O)c3ccccc3)[C@]3(O)C[C@H](OC(=O)[C@H](O)[C@@H](NC(=O)c4ccccc4)c4ccccc4)C(C)=C1C3(C)C)[C@]1(OC(C)=O)CO[C@@H]1C[C@@H]2O [PACLITAXEL]	5
O=c1[nH]c(=O)n([C@H]2C[C@H](O)[C@@H](CO)O2)cc1C(F)(F)F [TRIFLURIDINE]	6
APILIMOD MESYLATE	4
O=c1[nH]cc(F)c(=O)[nH]1 [FLUOROURACIL]	4
N#CC[C@H](C1CCCC1)n1cc(-c2ncnc3[nH]ccc23)cn1 [RUXOLITINIB]	6
MONENSIN SODIUM [MONENSIN SODIUM (MONENSIN A IS SHOWN)]	7
O=C(O)/C=C/c1ccc(-c2ccc(O)c(C34CC5CC(CC(C5)C3)C4)c2)cc1 [ADAROTENE]	11
CC(C)C[C@H](NC(=O)CNC(=O)c1cc(Cl)ccc1Cl)B1OC(=O)C(CC(=O)O)(CC(=O)O)O1 [MLN9708]	1
C#C[C@]1(O)CC[C@H]2[C@@H]3CCc4cc(OC5CCCC5)ccc4[C@H]3CC[C@@]21C [QUINESTROL]	15
Cc1nc2ccc(CN(C)c3ccc(C(=O)N[C@@H](CCC(=O)O)C(=O)O)s3)cc2c(=O)[nH]1 [RALTITREXED]	3
CO[C@H]1C[C@H](O[C@H]2[C@H](C)O[C@@H](O[C@@H]3/C(C)=C/C[C@@H]4C[C@@H](C[C@]5(C=C[C@H](C)[C@@H](C6CCCCC6)O5)O4)OC(=O)[C@@H]4C=C(C)[C@@H](O)[C@H]5OC/C(=C\C=C\[C@@H]3C)[C@]54O)C[C@@H]2OC)O[C@@H](C)[C@@H]1O [DORAMECTIN]	18
CCCCCCCCNC(C)C(O)c1ccc(SC(C)C)cc1 (stereo not shown) [SULOCTIDIL]	12
Clc1ccc2c(c1)CCc1cccnc1C2=C1CCNCC1 [DESLORATADINE]	1

Molecule	#Cases >70% cell death
CN(C[C@@H]1COCCO1)S(=O)(=O)Nc1ccc2ccc3ncc(-c4cnn(C)c4)cc3c(=O)c2c1 [MK-2461]	2
CC(=O)c1ccc2c(c1)N(CCCN(C)C)c1ccccc1S2 [ACEPROMAZINE MALEATE]	2
COC1=CC(c2cc3ccccc3[nH]2)=N/C1=C\c1[nH]c(C)cc1C [OBATOCLAX]	2
Cn1cc(-c2[nH]c3cc(NC(=O)[C@H](N)C4CCCCC4)cc4c3c2C=NNC4=O)cn1 [PF-00477736]	13
Cc1cc([C@@H](C)Nc2ccccc2C(=O)O)c2nc(N3CCOCC3)cc(=O)n2c1 [AZD-6482]	1
CC(C)(C)NCC(O)c1ccc(O)c(CO)c1 (stereo not shown) [ALBUTEROL]	1
OCCN(CCO)c1nc(N2CCCCC2)c2nc(N(CCO)CCO)nc(N3CCCCC3)c2n1 [DIPYRIDAMOLE]	2
CN1CCN(c2ncc(-c3cc(Cl)cc(Cl)c3Cl)c(N)n2)CC1 [SIPATRIGINE]	1
CC[C@@H](C(=O)[C@@H](C)[C@@H](O)[C@H](C)CCc1ccc(C)c(O)c1C(=O)O)[C@H]1O[C@](CC)([C@H]2CC[C@](O)(CC)[C@H](C)O2)C[C@@H]1C [LASALOCID SODIUM]	10
Clc1ccc(CO/N=C(\Cn2ccnc2)c2ccc(Cl)cc2Cl)c(Cl)c1 [OXICONAZOLE]	1
CN1CCC(CNc2ccc3ncc(-c4cccc(OC(F)(F)F)c4)n3n2)CC1 [SGI-1776]	14
O=C(CCCN1CC=C(n2c(=O)[nH]c3ccccc32)CC1)c1ccc(F)cc1 [DROPERIDOL]	2
C[C@@H](Oc1cc(-n2cnc3ccc(CN4CCN(C)CC4)cc32)sc1C(N)=O)c1ccccc1C(F)(F)F [GSK 461364]	9
CC[C@]1(O)C[C@@H]2CN(CCc3c([nH]c4ccccc34)[C@@](C(=O)OC)(c3cc4c(cc3OC)N(C)[C@H]3[C@@](O)(C(=O)OC)[C@H](OC(C)=O)[C@]5(CC)C=CCN6CC[C@]43[C@@H]65)C2)C1 [VINBLASTINE]	14
Nc1nc(F)nc2c1ncn2[C@@H]1O[C@H](COP(=O)(O)O)[C@@H](O)[C@@H]1O [FLUDARABINE PHOSPHATE]	4
Cc1ccc(C(=O)N(CCCN)[C@@H](c2oc3cc(Cl)ccc3c(=O)c2Cc2ccccc2)C(C)C)cc1 [SB743921]	18
C1CCC(C(CC2CCCCN2)C2CCCCC2)CC1 (stereo not shown) [PERHEXILINE MALEATE]	13
Cc1nnc(NS(=O)(=O)c2ccc(N)cc2)s1 [SULFAMETHIZOLE]	18
CCNC1(C(N)=O)CCN(c2ncnc3c2nc(-c2ccccc2Cl)n3-c2ccc(Cl)cc2)CC1 [CP-945]	1
c1ccc(-c2ccc(C(c3ccccc3)n3ccnc3)cc2)cc1 (stereo not shown) [BIFONAZOLE]	1
c1ccc2c(CCNc3ccc(Nc4ccncc4)cc3)c[nH]c2c1	12
CC(C)(C)CC(C)(C)c1cc(Cc2cc(C(C)(C)CC(C)(C)C)cc(-n3nc4ccccc4n3)c2O)c(O)c(-n2nc3ccccc3n2)c1 [BISOCTRIZOLE]	1
CN(Cc1cc(Br)cc(Br)c1N)C1CCCCC1 [BROMHEXINE]	1

Molecule	#Cases >70% cell death
CCCCCN(C)CCC(O)(P(=O)(O)O)P(=O)(O)O [IBANDRONATE]	1
COc1cccc2c1C(=O)c1c(O)c3c(c(O)c1C2=O)C[C@@](O)(C(C)=O)C[C@@H]3O[C@H]1C[C@H](N)[C@H](O)[C@H](C)O1 [DAUNORUBICIN]	18
Cc1c(Nc2ncccc2C(=O)O)cccc1C(F)(F)F [FLUXININ]	3
COc1cc(C(=O)NCc2ccc(OCCN(C)C)cc2)cc(OC)c1OC [TRIMETHOBENZAMIDE HYDROCHLORIDE]	1
CN[C@@H]1[C@@H](O)[C@@H](O[C@@H]2[C@@H](O)[C@H](O[C@H]3OC(CN)=CC[C@H]3N)[C@@H](N)C[C@H]2N)OC[C@]1(C)O [SISOMICIN]	10
CC1(C)CC[C@]2(C(=O)O)CC[C@]3(C)[C@H](C(=O)C=C4[C@@]5(C)C=C(C#N)C(=O)C(C)(C)[C@@H]5CC[C@]43C)[C@@H]2C1 [BARDOXOLONE]	12
CN(C)C(=O)n1cc(C(=O)c2ccn3c2CS[C@@H]3c2cccnc2)c2ccc(-c3ccc(F)cc3)cc21 [A-85783]	9
C[C@@H]1O[C@@H](O[C@H]2C[C@@H](O)[C@]3(CO)[C@H]4[C@H](O)C[C@]5(C)[C@@H](C6=CC(=O)OC6)CC[C@]5(O)[C@@H]4CC[C@]3(O)C2)[C@H](O)[C@H](O)[C@H]1O.O.O.O.O.O.O.O.O [STROPHANTINE OCTAHYDRATE]	18
COc1ccc(C2CNC(=O)C2)cc1OC1CCCC1 (stereo not shown) [ROLIPRAM]	1
Nc1nc2nc[nH]c2c(=S)[nH]1 [THIOGUANINE]	14
N=C(N)c1ccc(OCCCCCOc2ccc(C(=N)N)cc2)cc1 [PENTAMIDINE]	2
CC(C)/N=c1\cc2n(-c3ccc(Cl)cc3)c3ccccc3nc-2cc1Nc1ccc(Cl)cc1 [CLOFAZIMINE]	6
CS(=O)(=O)CCNCc1ccc(-c2ccc3ncnc(Nc4ccc(OCc5cccc(F)c5)c(Cl)c4)c3c2)o1 [LAPATINIB]	2
CC[C@@]1(O)C(=O)OCc2c1cc1n(c2=O)Cc2cc3c(CN(C)C)c(O)ccc3nc2-1 [TOPOTECAN]	13
Cc1cc(C(=O)NOCCO)c(Nc2ccc(I)cc2F)n(C)c1=O [AZD8330]	2
CCOc1cc2ncc(C#N)c(Nc3ccc(OCc4cccc(F)c4)c(Cl)c3)c2cc1NC(=O)/C=C/CN(C)C [HKI 357]	4
C[C@H]1[C@H](OC(=O)CCC(=O)O)O[C@@H]2O[C@@]3(C)CC[C@H]4[C@H](C)CC[C@@H]1[C@@]24OO3 [ARTESUNATE]	5
CCCNCC(O)COc1ccccc1C(=O)CCc1ccccc1 (stereo not shown) [PROPAFENONE]	1
C[C@@H]1O[C@@H](O[C@@H]2C=C3CC[C@@H]4[C@H](CC[C@]5(C)[C@@H](c6ccc(=O)oc6)CC[C@]45O)[C@@]3(C)CC2)[C@H](O)[C@H](O)[C@H]1O [PROSCILLARIDIN]	18
CN(C)/N=N/c1[nH]cnc1C(N)=O [DACARBAZINE]	14
Cc1cc(N)c2ccccc2[n+]1CCCCCCCCCC[n+]1c(C)cc(N)c2ccccc21 [DEQUALINIUM CHLORIDE]	17
Cc1cc(C#N)cc(C)c1Oc1nc(Nc2ccc(C#N)cc2)nc(N)c1Br [ETRAVIRINE]	1
